Test results from patent US4259257A, “1-Phenyl-2-amino-1,3-propanediol-N-aryloxyalkyl derivatives” (Egyt Gyogyszervegyeszeti Gyar, priority 1977, dated 1981).
Where a name gives a salt, the structure may show the parent alone. Read-outs that look alike come from different tables or passages of the source.

Tests used:
[1] = system: coronary insufficiency induced with glanduitrine in male rats (CFY strain); test: Anti-anginose activity by the method of Nieschulz, coronary insufficiency induced with glanduitrine; assay type: in vivo; conditions: for Anti-anginose effect (inhibition %): rats, test dose 10.0 mg./kg. (compound 1), 2.0 mg./kg. (2, 3, Prenilamine), 4.0 mg./kg. (5, Lidocaine); for Relative efficiency (relative anti-anginose activity): inhibition caused by Prenilamine=1
Protocol: Anti-anginose activity of the compounds according to the invention was tested on male rats from the CFY strain by the method of Nieschulz (Nieschulz, E. et al., Arzneimittelforschung, 5, 680/1955/). The rats weighed about 180 to 220 g. each and were narcotized prior to treatment. Electrocardiograms were registered by means of a NEK-2 ECG-instrument using a standard II output. The coronary insufficiency was induced with a 4 IE/kg. i.v. dose of glanduitrine. Prenilamine was used as a reference compound.
The acute intravenous toxicity was determined on rats of both sexes, using five animals for each doses. The relative anti-anginose activity was calculated on the basis of the following equation: [formula] Test results are shown in Table 3 below (inhibition caused by Prenilamine=1).

N. ischiadicus of rats = test: Local anaesthetic activity by the method of Truant and d'Amato; assay type: in vivo; conditions: for Local anaesthetic activity EC50: N. ischiadicus of rats, motor-paralysis; for Local anaesthetic activity, relative efficiency: related to Lidocaine (1.0)
Protocol: The local anaesthetic activity was tested by the method of Truant and d'Amato (Truant, A. P. and Wiedling, S., Acta Chirurg. Scand. 116, 351/1958) on the N. ischiadicus of rats. The number of the animals showing the signs of characteristic motor-paralysis was recorded. As a control compound Lidocaine was used. This test can be carried out with water-soluble substances only.

in vivo = conditions: rat, iv, read-out: LD50-value (acute intravenous toxicity)
Protocol: The acute intravenous toxicity was determined on rats of both sexes, using five animals for each doses. The relative anti-anginose activity was calculated on the basis of the following equation: [formula]

[2] = Acute oral toxicity on mice (CFLP strain), 96 h observation; conditions: mouse, in vivo
Protocol: Toxicity (per os) has been determined on mice (CFLP strain) of both sexes weighing about 20 to 25 g. each, 10 mice were used for each doses and the time of observation was 96 hours.

isolated rat ileums = test: Smooth muscle relaxing activity by the method of Brock et al. on isolated rat ileums; conditions: for Smooth muscle relaxant activity EC50: isolated rat ileums; for Smooth muscle relaxant activity, relative efficiency: related to Papaverine (1.0)
Excerpt: For the determination of smooth muscle relaxing activity the method of Brock et al. (Brock, N, et al., Arch. Exper. Pathol. u. Pharmacol., 215, 492/1952/) was used on isolated rat ileums. Papaverine was used as reference compound. In Table 4 below the EC50 -values and the relative efficiencies calculated on the basis of the following equation are also listed: [formula]

Structure (SMILES)	Anti-anginose effect (inhibition %) [1]	Local anaesthetic activity EC50 (N. ischiadicus of rats)	Relative efficiency (relative anti-anginose activity) [1]	LD50 (in vivo)	LD50 at 96 h [2]	Smooth muscle relaxant activity EC50 (isolated rat ileums)	Smooth muscle relaxant activity, relative efficiency (isolated rat ileums)	LD50 (in vivo; rats, i.v.)	Local anaesthetic activity, relative efficiency (N. ischiadicus of rats)
CCN(CC)CC(=O)Nc1c(C)cccc1C [Lidocaine, reference compound]	39%	0.19 µg/mL	–	–	–	–	–	–	–
CC(C)N[C@@H](CO)[C@@H](O)c1ccccc1 [Compound 1, L (+) threo-1-phenyl-2-isopropylamino-1,3-propanediol]	50%	–	3.0	140 mg/kg	710 mg/kg	–	–	–	–
COc1ccc(Cc2nccc3cc(OC)c(OC)cc23)cc1OC [Papaverine, reference compound]	–	–	–	–	–	8.78 µg/mL	1.0	–	–
CC(COc1ccccc1)N[C@@H](CO)[C@H](O)c1ccccc1 (stereo partly drawn) [Compound 5, Erythro+alloerythro-1-phenyl-2-phenoxyisopropylamino-1,3-propanediol fumarate]	64%	–	3.0	45 mg/kg	2000 mg/kg	–	–	–	–
CC(Cc1ccccc1)NCCC(c1ccccc1)c1ccccc1 (stereo not drawn) [Prenilamine, 3,3-diphenylpropyl-1-methylphenethylamine, reference compound]	41%	–	1.0	–	–	–	–	11.5 mg/kg	–
CC(COc1ccccc1)N[C@@H](CO)[C@@H](O)c1ccccc1 (relative stereo) [Compound 2, Threo + allothreo-1-phenyl-2-phenoxy-isopropylamino-1,3-propanediol fumarate]	56%	0.12 µg/mL	1.3	11 mg/kg	200 mg/kg	17.57 µg/mL	0.50	–	1.58
CC(COc1ccccc1)N[C@@H](CO)[C@@H](O)c1ccccc1 (single isomer, unassigned; (+)) [Compound 3, (+) (Threo + allothreo)-1-phenyl-2-phenoxy-isopropylamino-1,3-propanediol fumarate]	67%	0.20 µg/mL	3.0	21.5 mg/kg	350 mg/kg	8.50 µg/mL	1.03	–	0.95
CC(COc1ccccc1)N[C@H](CO)[C@H](O)c1ccccc1 (single isomer, unassigned; (-)) [Compound 4, (-) (Threo + allothreo)-1-phenyl-2-phenoxy-isopropylamino-1,3-propanediol fumarate]	–	0.28 µg/mL	–	–	275 mg/kg	10.78 µg/mL	0.80	–	0.68
